Several values for one entry are separate records, joined by “and”; a condition that tells them apart may be missing. Equal entries are not always repeated.
How the values were obtained:
[1] = tested on: subjects with narcolepsy type-2 (NT2); test: Part 5 NT2: Maintenance of Wakefulness Test (MWT) sleep latency; format: in vivo, human; conditions: for Change from Day −1 in Average Sleep Latency on the MWT, LSM / Change from Day −1 in Average Sleep Latency on the MWT, LSM difference vs placebo: NT2, N = 9; for Average Sleep Latency on the MWT, Change from Day −1, Mean (SD) / Average Sleep Latency on the MWT, Change from Day −1, Median / Average Sleep Latency on the MWT, Dosing Day, Mean (SD) / Average Sleep Latency on the MWT, Dosing Day, Median: NT2, n = 9; for LS mean difference vs placebo in change from baseline, average MWT sleep latency: 2-8 hours post-dose
Experimental: On Day −1, approximately 25 hours prior to study drug administration (on Day 1), baseline assessments for Maintenance of Wakefulness Test (MWT) began and were collected in a series of trials over approximately 10 hours.
At specified time points (Parts 5 and 6), MWT assessments were performed and took up to 40 minutes to complete. During the MWT trials, subjects were seated in a bed or reclining chair in a darkened room with their back and head supported such that their neck is not uncomfortably flexed or extended. Subjects were instructed to sit still and remain awake for as long as possible during each 40-minute trial. If the subject fell asleep during a trial, they were awakened, and the trial was terminated. […] Upon completion of the trial, the subject returned to a normal environment/ambiance and remained awake (and were awakened if they fall asleep) until the next trial.
Once Parts 5 and 6 were completed, the EEG data recorded during the MWT, as well as the technician notes, were transferred to the EEG vendor for further analysis. Technician notes were also maintained for transfer to Sponsor at the end of the study. A precise assessment of sleep latency was conducted by an experienced sleep scorer from the EEG vendor, and spectral analysis was performed on the EEG data recorded during MWT to assess absolute and relative powers in standard frequency bands (i.e., qEEG). All raw data and analysis results were transferred to the Sponsor.
For the changes from baseline in average sleep latency across the first 4 sessions of the MWT, descriptive statistics were provided by dose level. Mixed model with repeated measure (MMRM) for the 4-period crossover design were conducted with the change from baseline as a dependent variable, and the dose level and the period as fixed factors. The differences in the least square means between each Compound A dose level and the placebo (each Compound A dose level—the placebo), and the 2-sided CIs were provided.
Evaluation of Compound A effects on average sleep latency across 4 timepoints of MWT (2-, 4-, 6-, and 8-hours post-dose) has been conducted at each of the crossover periods (Days 1, 3, 5 and 7), testing placebo, and active dose levels of 5, 12, and 25 mg in the patients with NT2 compared to placebo. At pre-dose baseline on Day −1, MWT assessment was taken at similar times (2-, 4-, 6-, and 8-hours) as planned on dosing days assuming a dosing time of approximately 9 AM. Mean (SD) of baseline MWT average across the 4 time points on Day −1 was 14.31 (11.201), with high variability observed for NT2 subjects.

[2] = Part 3 relative bioavailability (tablet vs powder-in-capsule) with food effect: plasma PK, 10 mg; format: in vivo, human; conditions: for increase of peak plasma concentration, fed vs fasted: 10 mg tablet; for AUC(0-inf) / half-life / Cmax / Tmax: human, plasma, oral
Experimental: Part 3 compared the relative bioavailability (RelBA) of Compound A between a tablet formulation and the powder-in-capsule formulation. In addition, the food effect (FE) on the bioavailability of Compound A was assessed following administration of tablet formulation. Dose levels were as follows:
The Part 3 (RelBA with FE) evaluation was conducted using a 2-sequence, 3-period crossover study design in approximately 12 subjects. Subjects in Part 3 were randomized 1:1 to receive 1 of 2 sequences consisting of 3 periods with up to 72 hours of washout between treatments. The first 2 periods were dosed under fasted state and the third period was dosed in a fed state (high-fat meal).
Sequence 1 began with powder-in-capsule formulation in Period 1 (fasted), followed by tablet formulation in Period 2 (fasted) and tablet formulation in Period 3 (fed). Sequence 2 began with tablet formulation in Period 1 (fasted), followed by powder-in-capsule formulation in Period 2 (fasted) and tablet formulation in Period 3 (fed).
In treatment period(s) under the fed condition, following overnight fast, all subjects were given a high-fat breakfast. Within 30 minutes of starting the consumption of the breakfast, the assigned treatment was administered. […] There was a 72-hour washout period between the treatments.
Relative bioavailability analysis: A mixed effects model was used to evaluate the effect of a tablet formulation on the PK of Compound A. The primary PK parameters, namely, Cmax, AUC0-t, and […], were logarithmically transformed and used as the dependent variable, with treatment (tablet formulation or powder-in-capsule) as a fixed effect, and subject as a random effect. The ratio of the geometric means of the 2 treatments was obtained from the analysis, and a 2-sided 90% CI for the ratio was estimated. In this comparison, the same dose level of Compound A administered under tablet formulation is the test and powder-in-capsule is the reference. Thus, the comparison of interest is as follows: Fasted in new formulation (Test) vs Fasted in powder-in-capsule (Reference).
Food effect analysis: A mixed effects model was used to evaluate the effect of a high-fat, high caloric meal on the PK of Compound A in the tablet formulation. The primary PK parameters, namely, Cmax, AUC0-t, and AUC0-∞, were logarithmically transformed and used as the dependent variable, with treatment (fed or fasted) as a fixed effect, and subject as a random effect. The ratio of the geometric means of the 2 treatments was obtained from the analysis, and a 2-sided 90% CI for the ratio was estimated. In this comparison, the same dose level of Compound A administered under fed conditions is the test and Compound A administered under fasted conditions is the reference. Thus, the comparison of interest is as follows: Fed a high-fat meal in tablet formulation (Test) vs Fasted in tablet formulation (Reference).
Food effect was studied following a high fat (cohort 1) and low fat (cohort 2) meal. Both cohorts were completed in independent studies. For cohort 1, a high-fat meal was served consisting of 800-1,000 total calories with 150 calories from protein, 250 calories from carbohydrates, 500-600 calories from fat (≥50 percent of calories from fat). For cohort 2, a low-fat meal was served consisting of 400-500 total calories with 100-125 calories from fat (25 percent of calories from fat).

[3] = 10 mg, 10 mg Capsule (Fasted), Cohort 1, N = 9
[4] = 10 mg, 10 mg Tablet (Fasted), Cohort 1, N = 8
[5] = 10 mg, 10 mg Tablet (Fasted), Cohort 2
[6] = 10 mg, 10 mg Tablet (Fasted), Cohort 2, N = 8
[7] = 10 mg, 10 mg Tablet (Fed, high-fat), Cohort 1
[8] = 10 mg, 10 mg Tablet (Fed, low-fat), Cohort 2
[9] = 10 mg, 10 mg Tablet (Fed, low-fat), Cohort 2, N = 10

CS(=O)(=O)N[C@H]1CCCN2C(=O)COc3ccccc3C3CCC(CC3)OCC12 (stereo partly drawn) [Compound A, N-[(4S,4aR,7α,10α)-1,2,3,4,4a,5,7,8,9,10,16,17-dodecahydro-17-oxo-7,10-ethanopyrido[1,2-d][1,7,4]benzodioxaazacyclotridecin-4-yl]methanesulfonamide]
Change from Day −1 in Average Sleep Latency on the MWT, LSM ([1]; 5 mg): 11.68 min
Change from Day −1 in Average Sleep Latency on the MWT, LSM difference vs placebo ([1]; 5 mg): 11.60 min
Average Sleep Latency on the MWT, Change from Day −1, Mean (SD) ([1]; 5 mg): 11.65 (14.736) minutes
Average Sleep Latency on the MWT, Change from Day −1, Median ([1]; 5 mg): 8.50 min
Average Sleep Latency on the MWT, Dosing Day, Mean (SD) ([1]; 5 mg): 25.95 (12.409) minutes
Average Sleep Latency on the MWT, Dosing Day, Median ([1]; 5 mg): 26.63 min
Change from Day −1 in Average Sleep Latency on the MWT, LSM ([1]; 12 mg): 18.63 min
Change from Day −1 in Average Sleep Latency on the MWT, LSM difference vs placebo ([1]; 12 mg): 18.55 min
Average Sleep Latency on the MWT, Change from Day −1, Mean (SD) ([1]; 12 mg): 18.63 (10.892) minutes
Average Sleep Latency on the MWT, Change from Day −1, Median ([1]; 12 mg): 19.50 min
Average Sleep Latency on the MWT, Dosing Day, Mean (SD) ([1]; 12 mg): 32.93 (9.836) minutes
Average Sleep Latency on the MWT, Dosing Day, Median ([1]; 12 mg): 40.00 min
Change from Day −1 in Average Sleep Latency on the MWT, LSM ([1]; 25 mg): 21.04 min
Change from Day −1 in Average Sleep Latency on the MWT, LSM difference vs placebo ([1]; 25 mg): 20.96 min
Average Sleep Latency on the MWT, Change from Day −1, Mean (SD) ([1]; 25 mg): 21.14 (12.126) minutes
Average Sleep Latency on the MWT, Change from Day −1, Median ([1]; 25 mg): 17.25 min
Average Sleep Latency on the MWT, Dosing Day, Mean (SD) ([1]; 25 mg): 35.44 (7.720) minutes
Average Sleep Latency on the MWT, Dosing Day, Median ([1]; 25 mg): 40.00 min
LS mean difference vs placebo in change from baseline, average MWT sleep latency ([1]; NT2, 5 mg): 11.60 min and 11.6 min and 12 min
observed mean MWT score over 8-hour period post-dose ([1]; NT2, 12 mg): ≥ 30 min
LS mean difference vs placebo in change from baseline, average MWT sleep latency ([1]; NT2, 12 mg): 18.55 min and 18.6 min and 19 min
observed mean MWT score over 8-hour period post-dose ([1]; NT2, 25 mg): ≥ 30 min
LS mean difference vs placebo in change from baseline, average MWT sleep latency ([1]; NT2, 25 mg): 20.96 min and 21.0 min and 21 min
increase of peak plasma concentration, fed vs fasted ([2]; high-fat meal, Cohort 1): 3 fold
increase of peak plasma concentration, fed vs fasted ([2]; low-fat meal, Cohort 2): approximately 2 fold
AUC0-∞ ratio (tablet/capsule) ([2]; 10 mg, fasted): 1.2
Cmax ratio (tablet Cmax/capsule Cmax) ([2]; 10 mg, fasted): 0.9
AUC(0-inf) [2, 3]: 124 ng·h/mL
half-life [2, 3]: 10.8 h
Cmax ([2]; 10 mg, 10 mg Capsule (Fasted), Cohort 1, geometric mean): 11.8 ng/mL
Tmax ([2]; 10 mg, 10 mg Capsule (Fasted), Cohort 1, median): 2 h
AUC(0-inf) [2, 4]: 144 ng·h/mL
half-life [2, 4]: 11 h
Cmax ([2]; 10 mg, 10 mg Tablet (Fasted), Cohort 1, geometric mean): 10.8 ng/mL
Tmax ([2]; 10 mg, 10 mg Tablet (Fasted), Cohort 1, median): 3.5 h
Cmax [2, 5]: 14.2 ng/mL
Tmax [2, 5]: 2.5 h
AUC(0-inf) [2, 6]: 189 ng·h/mL
half-life [2, 6]: 9.22 h
AUC(0-inf) [2, 7]: 140 ng·h/mL
Cmax [2, 7]: 30.1 ng/mL
half-life [2, 7]: 2.8 h
Tmax ([2]; 10 mg, 10 mg Tablet (Fed, high-fat), Cohort 1, median): 3.5 h
Cmax [2, 8]: 32.1 ng/mL
Tmax [2, 8]: 3.01 h
AUC(0-inf) [2, 9]: 180 ng·h/mL
half-life [2, 9]: 9.69 h
